In patent USRE38506E1, “Potent inducers of terminal differentiation and methods of use thereof” (Sloan-Kettering Institute for Cancer Research, priority 1991, dated 2004):

Tests used:
MELC 745A-DS19 cells [1] = experiment: Induction of terminal differentiation of murine erythroleukemia cells (benzidine reactivity); assay type: cell-based; settings: for Optimal Conc.: Table 1; for Benzidine Reactive Cells: at optimal concentration
Experimental: MELC 745A-DS19 cells and the variants of MELC derived from this cell line, namely, the vincristine-resistant MELC V3.17 and VCR.C(2)15 cell lines (26), and the dimethylsulfoxide-resistant cell line, DR10 (39), were maintained in alpha minimal essential medium containing 10% fetal calf serum (16). Cell cultures for all experiments were initiated with cells in logarithmic growth phase (day 2 cultured cells) at a density of 10^5 cells/ml. Inducer compounds were added in the final concentrations indicated below, dissolved in culture medium without fetal calf serum unless otherwise indicated. Cell density and benzidine reactively were determined as described (16).
(§1) Commitment to terminal differentiation, characterized by limited cell division (colony size<32 cells) and accumulation of hemoglobin (benzidine reactive colonies) was assayed by a colony cloning assay using 2% methylcellulose as described (25) (see Table 1 for results). HL-60 human leukemia cells, derived from peripheral blood leukocytes of a patient with acute promyelocytic leukemia (40). Induced differentiation of HL-60 cells assayed by determining the proportion of cells that developed the capacity to reduce nitroblue tetrazolium (NBT) (41) (see Table 2 for results).

[2] = test system: HL-60 human leukemia cells; experiment: Induction of Differentiation of HL-60 (NBT reduction); assay type: cell-based; settings: for Optimal Conc.: HL-60, Table 2; for NBT Positive: HL-60, at optimal concentration
Experimental: as §1

MELC 745A-DS19 cells [3] = settings: without continuing drug exposure; cited from earlier work

| Compound | Optimal Conc. (MELC 745A-DS19 cells [1]) [µM] | Benzidine Reactive Cells (MELC 745A-DS19 cells [1]) [%] | Optimal Conc. [2] [µM] | NBT Positive [2] [%] | minimum duration of continuous exposure required to induce differentiation in a substantial portion (>20%) of the population (MELC 745A-DS19 cells [3]) |
| --- | --- | --- | --- | --- | --- |
| N#Cc1cccc(NC(=O)CCCCCCC(=O)NO)c1 [compound 22] | 5 | 55 | 1.7 | 28 | – |
| O=C(CCCCCC(=O)Nc1ccccc1)NO [compound 2] | 20 | 84 | 7 | 22 | – |
| N#Cc1ccc(NC(=O)CCCCCCC(=O)NO)cc1 [compound 21] | 7 | 70 | 2 | 6 | – |
| O=C(CCCCCCC(=O)Nc1c(F)ccc(F)c1F)NO [compound 43] | 31 | 53 | 2 | 20 | – |
| COC(=O)c1ccc(NC(=O)CCCCCCC(=O)NO)cc1 [compound 36] | 4 | 28 | 1 | 32 | – |
| O=C(CCCCCCC(=O)Nc1ccc([N+](=O)[O-])cc1)NO [compound 25] | 0.8 | 30 | 3 | 18 | – |
| N#Cc1ccc(NC(=O)CCCCCCC(=O)O)cc1 [compound 7] | – | 52 | 20 | 21 | – |
| [N-]=[N+]=Nc1ccc(NC(=O)CCCCCCC(=O)NO)cc1 [compound 31] | 2 | 47 | 2.5 | 7 | – |
| O=C(O)CCCCCCC(=O)Nc1ccc(OCc2ccccc2)cc1 [compound 10] | 250 | 26 | – | – | – |
| N#CCCCCCC(=O)NO [compound 14] | – | 30 | – | – | – |
| O=C(CCCCCCC(=O)Nc1ccccc1F)NO [compound 32] | 4 | 65 | – | – | – |
| O=C(CCCCCCCCC(=O)Nc1ccccc1)NO [compound 5] | 20 | 15 | – | – | – |
| O=C(CCCCCCC(=O)NC1CCCCC1)NO [compound 16] | – | 35 | – | – | – |
| CC(CCCCC(C)C(=O)N(C)C)C(=O)N(C)C (stereo not shown) [compound 67] | – | 90 | – | – | – |
| CC(=O)NCCCCCCNC(C)=O [HMBA, N,N′-hexamethylene bisacetamide] | – | – | – | – | about 36 hours |
| O=C(CCCCCCC(=O)Nc1c(F)ccc(F)c1F)Nc1c(F)ccc(F)c1F [compound 62] | 250 | 28 | – | – | – |
| O=C(CCCCCCC(=O)Nc1cc(F)c(F)c(F)c1)NO [compound 48] | 8 | 55 | – | – | – |
| CNC(=O)c1ccc(NC(=O)CCCCCCC(=O)NO)cc1 [compound 37] | 30 | 16 | – | – | – |
| O=C(CCCCCC(CCCCCC(=O)NO)C(=O)NO)NO [compound 69] | – | 40 | – | – | – |
| O=C(CCCCCCC(=O)NCc1ccccc1)NO [compound 19] | – | 24 | – | – | – |
| O=C(CCCCCCC(=O)Nc1ccc(C(F)(F)F)cc1)NO [compound 27] | 5 | 47 | – | – | – |

| Compound | Optimal Conc. (MELC 745A-DS19 cells [1]) [µM] | Benzidine Reactive Cells (MELC 745A-DS19 cells [1]) [%] | Optimal Conc. [2] [µM] | NBT Positive [2] [%] | minimum duration of continuous exposure required to induce differentiation in a substantial portion (>20%) of the population (MELC 745A-DS19 cells [3]) |
| --- | --- | --- | --- | --- | --- |
| CC(CCCCCC(C)C(=O)N(C)C)C(=O)N(C)C (stereo not shown) [compound 66] | – | 80 | – | – | – |
| O=C(CCCCCCC(=O)Nc1cc(F)ccc1F)NO [compound 49] | 4 | 70 | – | – | – |
| COc1ccccc1NC(=O)CCCCCCC(=O)NO [compound 51] | 8 | 36 | – | – | – |
| O=C(NO)c1ccc(C(=O)Nc2ccccc2)cc1 [compound 55] | – | 53 | – | – | – |
| O=C(CCCCCCC(=O)Nc1cc(F)cc(F)c1)Nc1cc(F)cc(F)c1 [compound 61] | 125 | 31 | – | – | – |
| O=C(CCCCCCC(=O)Nc1cc(F)cc(F)c1)NO [compound 50] | 2 | 73 | – | – | – |
| O=C(CCCCC(=O)Nc1ccccc1)NO [compound 1] | 80 | 70 | – | – | – |
| O=C(O)CCCCCCC(=O)Nc1ccc([N+](=O)[O-])cc1 [compound 8] | – | 32 | – | – | – |
| O=C(CCCCCCC(=O)Nc1ccccc1)NO [compound 3] | – | 70 | 1 | 21 | – |
| O=C(CCCCCCC(=O)Nc1c(F)cc(F)cc1F)NO [compound 44] | 16 | 47 | – | – | – |
| O=C(CCCCCCC(=O)Nc1c(F)c(F)c(F)c(F)c1F)NO [compound 46] | 31 | 53 | – | – | – |
| O=C(CCCCCCC(=O)Nc1ccc(C(=O)NO)cc1)Nc1ccc(C(=O)NO)cc1 [compound 57] | 8 | 10 | – | – | – |
| CN(C)C(=O)CCCCCCC(=O)NO [compound 11] | – | 53 | – | – | – |
| CONC(=O)CCCCCCC(=O)NO [compound 15] | – | 43 | – | – | – |
| N#CCc1ccc(NC(=O)CCCCCCC(=O)NO)cc1 [compound 29] | 1 | 30 | 1 | 15 | – |
| O=C(CCCCCCC(=O)Nc1ccc(F)c(F)c1)NO [compound 47] | 4 | 61 | – | – | – |
| O=C(CCCCCCC(=O)Nc1ccccc1Br)NO [compound 38] | 8 | 45 | – | – | – |
| O=C(CCCCCCC(=O)Nc1cccc(C(F)(F)F)c1)NO [compound 26] | 30 | 30 | 6 | 27 | – |
| O=C(CCCCCCC(=O)Nc1ccc([N+](=O)[O-])cc1)Nc1ccc([N+](=O)[O-])cc1 [compound 65] | 25 | 14 | – | – | – |
| O=C(CCCCCCC(=O)Nc1ccc(Br)cc1)NO [compound 40] | 1.6 | 47 | – | – | – |
| N#Cc1cccc(NC(=O)CCCCCCC(=O)O)c1 [compound 6] | – | 44 | 20 | 30 | – |
